According to PubChem BioAssay AID328 (DTP/NCI, 2004):
Several values for one entry are separate records, joined by “and”; a condition that tells them apart may be missing. Equal values may be shown once. Toxic doses and inconclusive results are not listed. Non-standard residues stand in square brackets, D forms with d. Residues, ends and D or L forms follow the SMILES beside them. ξ: configuration not given here. ξPhe(4-N(CH2CH2Cl)2) = NC(Cc1ccc(N(CCCl)CCCl)cc1)C(=O)O

Test system: BDF1 mice, P388 leukemia ip, median survival T/C
Assay: NCI In Vivo Anticancer Drug Screen. Data for tumor model P388 Leukemia (intraperitoneal) in B6D2F1 (BDF1) mice
Conditions: endpoint: median survival time, higher = longer survival
Method in brief: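 Mice carrying the transplantable tumour receive compound or vehicle. Survival is followed in each arm, and the treated measure is divided by the vehicle measure.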

[1] = dose: 100.0 mg/kg/injection, schedule: Q01DX009 (ip), vehicle: saline with Tween-80
[2] = dose: 200.0 mg/kg/injection, schedule: Q01DX009 (ip), vehicle: saline with Tween-80
[3] = dose: 100.0 mg/kg/injection, schedule: Q04DX003 (ip), vehicle: saline
[4] = dose: 200.0 mg/kg/injection, schedule: Q04DX003 (ip), vehicle: saline
[5] = dose: 100.0 mg/kg/injection, schedule: Q01DX009 (ip), vehicle: saline
[6] = dose: 200.0 mg/kg/injection, schedule: Q01DX009 (ip), vehicle: saline

CCOC(=O)c1cc(C(=O)OCC)c(C#N)c(=O)[nH]1
T/C (dose: 100.0 mg/kg/injection, schedule: Q01DX009 (ip), vehicle: Klucel (hydroxypropylcellulose) (HPC)): 96 % of control
T/C (dose: 100.0 mg/kg/injection, schedule: Q04DX003 (ip), vehicle: Klucel (hydroxypropylcellulose) (HPC)): 91 % of control
T/C (dose: 200.0 mg/kg/injection, schedule: Q04DX003 (ip), vehicle: Klucel (hydroxypropylcellulose) (HPC)): 91 % of control
T/C (dose: 400.0 mg/kg/injection, schedule: Q01DX009 (ip), vehicle: Klucel (hydroxypropylcellulose) (HPC)): 92 % of control
T/C (dose: 400.0 mg/kg/injection, schedule: Q04DX003 (ip), vehicle: Klucel (hydroxypropylcellulose) (HPC)): 100 % of control

CC1B(O)Nc2nc(=S)[nH]c(N)c21 (stereo not given)
T/C (dose: 50.0 mg/kg/injection, schedule: Q04DX003 (ip), vehicle: saline sonified): 100 % of control
T/C (dose: 100.0 mg/kg/injection, schedule: Q04DX003 (ip), vehicle: saline sonified): 100 % of control
T/C (dose: 200.0 mg/kg/injection, schedule: Q04DX003 (ip), vehicle: saline sonified): 100 % of control

CN(C)N=Nc1ccc(NC(N)=O)cc1
T/C (dose: 25.0 mg/kg/injection, schedule: Q04DX003 (ip), vehicle: saline + Tween-80 + alcohol): 112 % of control

c1cc2c3c(c1)/C(=N\N=C1/CCN4CCCc5cccc1c54)CCN3CCC2
T/C (dose: 50.0 mg/kg/injection, schedule: Q01DX009 (ip), vehicle: saline with Tween-80): 104 % of control
T/C (dose: 50.0 mg/kg/injection, schedule: Q04DX003 (ip), vehicle: saline with Tween-80): 90 % of control
T/C [1]: 104 % of control
T/C (dose: 100.0 mg/kg/injection, schedule: Q04DX003 (ip), vehicle: saline with Tween-80): 100 % of control
T/C [2]: 104 % of control
T/C (dose: 200.0 mg/kg/injection, schedule: Q04DX003 (ip), vehicle: saline with Tween-80): 100 % of control

O=C(NCCN1CC1)C(=O)NCCN1CC1
T/C (dose: 1.56 mg/kg/injection, schedule: Q04DX003 (ip), vehicle: saline with Tween-80): 250 % of control
T/C (dose: 3.12 mg/kg/injection, schedule: Q04DX003 (ip), vehicle: saline with Tween-80): 173 % of control
T/C (dose: 6.25 mg/kg/injection, schedule: Q04DX003 (ip), vehicle: saline with Tween-80): 105 % of control

O=[N+]([O-])c1cccc(O)c1
T/C (dose: 100.0 mg/kg/injection, schedule: Q01DX001 (ip), vehicle: saline): 100 % of control
T/C [1]: 109 % of control
T/C [3]: 118 % of control
T/C (dose: 200.0 mg/kg/injection, schedule: Q01DX001 (ip), vehicle: saline): 100 % of control
T/C [2]: 86 % of control
T/C [4]: 100 % of control
T/C (dose: 400.0 mg/kg/injection, schedule: Q01DX001 (ip), vehicle: saline): 100 % of control

O=C(O)C(CCO)C(=O)C(F)(F)F (stereo not given)
T/C (dose: 25.0 mg/kg/injection, schedule: Q01DX009 (ip), vehicle: other): 98 % of control
T/C (dose: 50.0 mg/kg/injection, schedule: Q01DX009 (ip), vehicle: other): 98 % of control
T/C (dose: 100.0 mg/kg/injection, schedule: Q01DX009 (ip), vehicle: other): 91 % of control

CCOC(=O)C(Cc1ccc(N(CCCl)CCCl)cc1)NC(=O)C(CCC(=O)O)NC(=O)C(CO)NC(=O)C(CCC(=O)O)NC(=O)C(N)CO (stereo not given) (H-SESE[ξPhe(4-N(CH2CH2Cl)2)]-OEt; configuration not given here)
T/C (dose: 5.0 mg/kg/injection, schedule: Q04DX003 (ip), vehicle: water): 97 % of control
T/C (dose: 10.0 mg/kg/injection, schedule: Q04DX003 (ip), vehicle: water): 99 % of control
T/C (dose: 20.0 mg/kg/injection, schedule: Q04DX003 (ip), vehicle: water): 100 % of control
T/C (dose: 40.0 mg/kg/injection, schedule: Q04DX003 (ip), vehicle: water): 100 % of control

O=[N+]([O-])c1ccc(S(=O)(=O)c2ccc([N+](=O)[O-])c3no[n+]([O-])c23)cc1
T/C (dose: 15.0 mg/kg/injection, schedule: Q01DX009 (ip), vehicle: saline with Tween-80): 100 % of control
T/C (dose: 30.0 mg/kg/injection, schedule: Q01DX009 (ip), vehicle: saline with Tween-80): 90 % of control

NCC1OC(OC2C(CO)OC(OC3C(O)C(N)CC(N)C3OC3OC(CO)C(O)C(O)C3N)C2O)C(N)C(O)C1O (stereo not given)
T/C [5]: 104 % of control
T/C [6]: 106 % of control
T/C (dose: 400.0 mg/kg/injection, schedule: Q01DX009 (ip), vehicle: saline): 97 % of control

O=C(NC(CSC(c1ccccc1)(c1ccccc1)c1ccccc1)C(=O)O)OCc1ccccc1 (stereo not given)
T/C (dose: 50.0 mg/kg/injection, schedule: Q01DX009 (ip), vehicle: saline): 100 % of control and 110 % of control
T/C [5]: 122 % of control
T/C [3]: 100 % of control
T/C [6]: 118 % of control
T/C [4]: 104 % of control
T/C (dose: 400.0 mg/kg/injection, schedule: Q04DX003 (ip), vehicle: saline): 100 % of control

NS(=O)(=O)O
T/C (dose: 12.5 mg/kg/injection, schedule: Q01DX009 (ip), vehicle: saline): 91 % of control
T/C (dose: 25.0 mg/kg/injection, schedule: Q01DX009 (ip), vehicle: saline): 87 % of control
